This is an account of results in paper PMC12081029, “Structural, Spectroscopic, and Docking Analysis of N,O‐Donor Ligand Metal Complex Nanoparticles With Hypolipidemic Effects via Lipoprotein Lipase Activation in High‐Fat Diet Mice” (Chemistry & Biodiversity, 2024).

The subject of test [1] is Bacillus subtilis. The test is described as follows: MIC / MBC determination.
The subject of test [2] is Bacillus subtilis. The test is described as follows: Agar diffusion, inhibition zone (ZOI) and activity index. The following applies: Bacillus subtilis.
The next test deals with Staphylococcus aureus. The following applies: cited from earlier work; for Staphylococcus aureus (inhibition zone): in mm.
Test [3] relates to Bacillus subtilis. The following applies: cited from earlier work; for Bacillus subtillis (inhibition zone): in mm.
The next test concerns Escherichia coli. Particulars: cited from earlier work; for Escherichia coli (inhibition zone): in mm.
Setting [4] is: Table 9, preceding research ref [9].
Where [5] appears, read: Table 9, preceding research ref [7].
The mark [6] stands for this setting: Table 9, preceding research ref [11].

Where “and” joins values, the source holds several entries; their conditions need not be identical. Equal entries are not always repeated. Where two headings read alike, the source gives them in different places.

With `O.c1cnc2c(c1)ccc1cccnc12` [Phen.H2O, 1,10‐phenanthroline monohydrate], in the test on Bacillus subtilis [1], the MBC worked out at 0.032 µg/mL; the minimal inhibitory concentration (MIC) is 0.025 µg/mL and 0.025 ± 0.03 µg/mL. The molecule further gave a ZOI with Bacillus subtilis [2] (10^−3 M in DMF, 5 mm holes, 20 h at 37°C) of 1.1 ± 0.16 mm. This molecule also showed an AI with Bacillus subtilis [2] (ZOI of compound / ZOI of standard (ampicillin) × 100) of 3.87%.

`O.O.O.O=C([O-])COCCN1CCN(C(c2ccccc2)c2ccc(Cl)cc2)CC1.O=C([O-])COCCN1CCN(C(c2ccccc2)c2ccc(Cl)cc2)CC1.[Cu+2]` (stereo not shown) [[Cu(CETZ)2(H2O)2].H2O]: in the test on Staphylococcus aureus (setting [4]), the “Staphylococcus aureus (inhibition zone)” value was 15.21 ± 0.46. Further, the “Bacillus subtillis (inhibition zone)” value in the test with Bacillus subtilis [3] (setting [4]) was 18.31 ± 0.55. Further, in the test on Escherichia coli (setting [4]), the “Escherichia coli (inhibition zone)” value is 13.43 ± 0.39.

In the case of `CC(N)C(=O)[O-].O.O=C([O-])COCCN1CCN(C(c2ccccc2)c2ccc(Cl)cc2)CC1.[Cu+2]` (stereo not shown) [[Cu(CETZ)(Ala)(H2O)]], the AI in the test with Staphylococcus aureus (Table 9, Staphylococcus aureus ref [7]) is given as 56.93; with Bacillus subtilis [3] (Table 9, Bacillus subtillis ref [7]), 42.9; with Escherichia coli (Table 9, Escherichia coli ref [7]) it was 52.91. Besides, the “Staphylococcus aureus (inhibition zone)” value with Staphylococcus aureus (setting [5]) was 15.6 ± 0.4. Moreover, the “Bacillus subtillis (inhibition zone)” value in the test on Bacillus subtilis [3] (setting [5]) is 13.9 ± 0.3. The “Escherichia coli (inhibition zone)” value in the test with Escherichia coli (setting [5]) is 11.8 ± 0.5.

Regarding [Cu(AMBI)(CETZ)(NO3)(H2O)2], the AI in the test with Staphylococcus aureus (Table 9, Staphylococcus aureus ref [11]) was 96.72; with Bacillus subtilis [3] (Table 9, Bacillus subtillis ref [11]), 89.2; in the test on Escherichia coli (Table 9, Escherichia coli ref [11]), 95.10. Besides, the “Staphylococcus aureus (inhibition zone)” value in the test on Staphylococcus aureus (setting [6]) is reported as 26.5 ± 0.6. Moreover, the “Bacillus subtillis (inhibition zone)” value in the test on Bacillus subtilis [3] (setting [6]) is recorded as 28.9 ± 0.3. In addition, in the test with Escherichia coli (setting [6]), the “Escherichia coli (inhibition zone)” value is on record as 21.3 ± 0.4.
